Tests used:
[1] = system: MCF-7 (ER+) human derived breast carcinoma cells; assay: Growth inhibitory assay (MTT), MCF-7; format: cell-based; conditions: MCF7, ER+ MCF-7, 3 days (72 h) treatment, n=8, representative mean, ^a = biphasic dose response
Experimental: (§1) Prodrugs were prepared as 10 mM top stocks, dissolved in dimethylsulphoxide (DMSO) or sterile ddH2O, and stored at 4°C, protected from light for a maximum period of 4 weeks. MCF-7 (ER+) and MDA 468 (ER−) human derived breast carcinoma cells, cultivated at 37°C in an atmosphere of 5% CO2 in RPMI 1640 medium supplemented with 2 mM L-glutamine and 10% foetal calf serum, were routinely subcultured twice weekly to maintain continuous logarithmic growth. Cells were seeded into 96-well microtiter plates at a density of 5×10^3 per well and allowed 24 h to adhere before drugs were introduced (final concentration 0.1 nM–100 μM, n=8). Serial drug dilutions were prepared in medium immediately prior to each assay. Viable cell masses at the time of drug addition (time-zero), and following 72 h drug exposure were determined by cell-mediated 3-(4,5-dimethylthiazol-2-yl)-2,5-diphenyltetrazolium bromide (MTT) reduction. MTT was added to each well (final concentration 400 μg ml^−1) and plates were incubated at 37°C for 4 h to allow reduction of MTT by viable cell dehydrogenases to an insoluble formazan product. Well supernatants were aspirated and cellular formazan solubilised by addition of DMSO : glycine buffer (pH 10.5) (4 : 1). Cell growth as well as drug activity were determined by measuring absorbance at 550 nm using an Anthos Labtec systems plate reader.

[2] = system: MDA 468 (ER−) human derived breast carcinoma cells; assay: Growth inhibitory assay (MTT), MDA 468; format: cell-based; conditions: Breast carcinoma cell, ER− MDA 468, 3 days (72 h) treatment, n=8, representative mean, ^a = biphasic dose response
Experimental: as §1

[3] = system: CYP1A1 activity (EROD) in MCF-7 cells; assay: Induction of EROD activity in lysates of treated MCF-7 cells; format: cell-based, human; conditions: lysates of MCF-7 cells treated with 1 μM, 24 h; negligible activity in untreated lysates; mean of three, s.d. <10%
Experimental: (§2) A sensitive and rapid fluorometric assay was used to measure EROD activity ([Burke et al, 1994]). Incubation mixtures (total 1 ml) consisted of 100 mM Tris-HCl (pH 7.4), 50 μM MgCl2, 100 μM 7-ethoxyresorufin and 100 μl cell homogenate. Homogenates were prepared following treatment of cells for 24 h with compounds 1, 2, 2a, 2b, 3, 3a, 3b, 4, 4a and 4b or vehicle alone and protein content determined (n=3). Thus induction of ethoxyresorufin O-deethylation by agents under study, catalysed by CYP1A1 activity, could be determined. Alternatively, microsomes expressing recombinant CYP1A1 (0.1 mg ml^−1) provided the enzyme source for EROD catalysis, in the presence or absence of drug, in order to determine inhibition of CYP1A1 activity by compounds 1, 2, 2a, 2b, 3, 3a, 3b, 4, 4a and 4b. Incubation mixtures were pre-incubated for 5 min at 37°C before initiation of reaction by addition of NADPH (500 μM). Following further incubations at 37°C (30 min for cell homogenates, 15 min for CYP1A1 microsomes), reactions were terminated by addition of 3 ml ice-cold acetonitrile. Reaction mixtures were centrifuged (1400 r.p.m., 10 min) before analyses of supernatants. Fluorescence was read on a Perkin-Elmer LS-5 luminescence spectrometer (excitation, 530 nm; emission 585 nm). Estimation of resorufin reaction product (pmoles mg^−1 protein, pmoles 100 μg^−1 microsomes), as a measure of CYP1A1 activity, was determined following performance of a resorufin standard curve.

CYP1A1 [4] = target: T1, CYP1A1 (Homo sapiens, UniProt P04798); assay: Inhibition of recombinant CYP1A1 microsomal EROD activity; format: biochemical; conditions: microsomes expressing recombinant CYP1A1, pH 7.4, probe 7-ethoxyresorufin (100 μM); 30 μM agent; incubates without drug = 100% activity; mean of three, s.d. <10%; read-out: Microsomal CYP1A1 EROD activity (% control)
T1 sequence (P04798 1-512): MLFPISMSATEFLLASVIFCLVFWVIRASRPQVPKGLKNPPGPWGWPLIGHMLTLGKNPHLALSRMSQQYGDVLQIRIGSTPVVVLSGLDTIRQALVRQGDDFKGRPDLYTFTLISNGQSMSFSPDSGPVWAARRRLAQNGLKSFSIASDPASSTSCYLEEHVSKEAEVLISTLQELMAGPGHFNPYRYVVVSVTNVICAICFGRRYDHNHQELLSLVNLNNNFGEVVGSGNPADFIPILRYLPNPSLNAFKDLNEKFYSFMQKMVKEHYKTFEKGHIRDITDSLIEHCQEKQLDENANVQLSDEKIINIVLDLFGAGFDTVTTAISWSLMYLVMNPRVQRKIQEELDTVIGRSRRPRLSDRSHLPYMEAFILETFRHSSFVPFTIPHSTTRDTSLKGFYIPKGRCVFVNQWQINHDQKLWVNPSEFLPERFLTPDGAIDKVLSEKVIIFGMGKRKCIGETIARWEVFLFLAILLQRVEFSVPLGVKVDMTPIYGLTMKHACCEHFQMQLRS
Experimental: as §2

[5] = system: CYP1A1 protein expression in MCF-7 cells; assay: Western blot of CYP1A1 protein, MCF-7 lysates; format: cell-based, human; conditions: 1 μM, 24 h
Experimental: (§3) Whole cell lysates were prepared for examination of CYP1A1 protein expression from untreated MCF-7, IGROV-1 and HCT 116 cultures and following exposure of cells to compounds 1, 2, 2a, 2b, 3, 3a, 3b, 4, 4a and 4b. Following protein determination (n=3, [Bradford, 1976]) and addition of sample buffer, samples were boiled at 95°C for 5 min and solubilised proteins (50 μg) were separated by sodium dodecyl sulphate (SDS) polyacrylamide gel (10%) electrophoresis. Proteins were electroblotted to polyvinylidene difluoride (PVDF) membranes and probed for CYP1A1 protein with polyclonal antiserum specific for human CYP1A1/1A2 (Gentest Corporation). Secondary antibody was conjugated to alkaline phosphatase, and CYP1A1 was detected following brief (<10 min) incubation with bromochloroindolyl phosphate and nitro-blue tetrazolium in alkaline phosphatase buffer. Molecular weight markers and a positive control of recombinant CYP1A1 (Gentest Corporation), included in all blots, confirmed detection of 52 kDa CYP1A1 protein.

[6] = system: CYP1A1 protein expression in HCT 116 cells; assay: Western blot of CYP1A1 protein, HCT 116 lysates; format: cell-based, human
Experimental: as §3

MCF-7 cells = assay: Prodrug uptake, conversion and metabolism (HPLC of media), MCF-7; format: in vitro ADME, human; conditions: for Biotransformation products of liberated parent amine in media: prodrug 10 μM, days 1–7
Experimental: (§4) MCF-7 cells were seeded into 25 ml flasks at appropriate densities (5×10^5–5×10^6). After 24 h, medium was changed and drug introduced at a final concentration of 10 μM. Media samples, collected from flasks at time zero and 24 h intervals, were mixed with 1.5-fold volumes of high performance liquid chromatography (HPLC) grade acetonitrile to precipitate protein and centrifuged at 14 000 g for 5 min. Supernatants (600 μl) were mixed with 400 μl 10% acetonitrile in 1% acetic acid and analysed by HPLC. The system consisted of Beckman System Gold equipment (solvent module 128, autosampler 507e and multiple wavelength UV detector 168). Separation of parent compounds and biotransformation products was effected at room temperature on a Phenomenex Aqua C18 reversed-phase column (150×4.6 mm). The mobile phase was formed by increasing, then decreasing the acetonitrile concentration in 1% acetic acid over 20 min by mixing two solutions: acetonitrile-water-acetic acid (10 : 90 : 1, v v^−1) and acetonitrile-water-acetic acid (80 : 20 : 1 v v^−1) and delivered at a flow rate of 1 ml min^−1. Compounds were detected at 324 nm.

T47D breast cells = assay: Prodrug uptake, conversion and metabolism (HPLC of media), T47D; format: in vitro ADME, human
Experimental: as §4, with “The mobile phase was formed by increasing, then decreasing the acetonitrile concentration in 1% acetic acid over 20 min by mixing two solutions: acetonitrile-water-acetic acid (10 : 90 : 1, v v^−1) and acetonitrile-water-acetic acid (80 : 20 : 1 v v^−1) and delivered at a flow rate of 1 ml min^−1.” left out
(§5) Uptake and metabolism of compounds 1a and 1b were examined in sensitive breast (MCF-7 and T47D) and insensitive renal (A498) cells using HPLC conditions which allow simultaneous detection of prodrug, parent amine and metabolites. When incubated at 0.1, 1 or 10 μM over 7 days at 37°C, the lysyl-amide compound 1a was most readily removed from the media supporting MCF-7 and T47D cells (Figure 2

A498 renal cells = assay: Prodrug uptake, conversion and metabolism (HPLC of media), A498; format: in vitro ADME, human
Experimental: as §4, with “The mobile phase was formed by increasing, then decreasing the acetonitrile concentration in 1% acetic acid over 20 min by mixing two solutions: acetonitrile-water-acetic acid (10 : 90 : 1, v v^−1) and acetonitrile-water-acetic acid (80 : 20 : 1 v v^−1) and delivered at a flow rate of 1 ml min^−1.” left out
as §5

CYP1A1 [7] = target: T1, CYP1A1; set-up: method as in Chua et al, 2000; conditions: ref Chua et al, 2000; cited from earlier work
[8] = Stability in human plasma; format: in vitro ADME; conditions: 37°C; no free amine detected
Description: Data have been presented describing the in vitro biological properties of alanyl and lysyl amide derivatives of 2-(4-amino-3-methylphenyl)benzothiazoles. Prodrugs are rapidly depleted from nutrient media, generating their parent species in the presence of cells (Figures 2 and 3). In the absence of cells, no spontaneous hydrolysis of the amide bond occurs to release the amine from its amino acid salt. The cleavage of amino acid amides may be catalysed by ubiquitously expressed aminopeptidases, but subsequent bioactivating steps, essential for the mechanism of action of aminophenylbenzothiazoles, take place selectively in sensitive cell lines (e.g. Figure 5). Compounds 1a and 1b were stable when incubated at 37°C with human plasma; specifically, no free amine was detected.

Row | Structure (SMILES) | GI50 [1] [nM] | GI50 [2] [nM] | Induction EROD activity [3] | activity at 15 min, 30 μM (CYP1A1 [4]) [%] | CYP1A1 protein expression (Western blot) [5] | CYP1A1 protein expression (Western blot) [6] | Time of peak media level of regenerated parent amine (MCF-7 cells; regenerated from amide prodrugs, 7 day incubation) [days] | Time of peak media level of regenerated parent amine (T47D breast cells; T47D cells, regenerated from amide prodrugs, 7 day incubation) [days] | Removal of effluxed parent amine from media (A498 renal cells; inherently resistant A498 cells, 7 day incubation) | Inhibition of CYP1A1 microsome activity (CYP1A1 [7]) | Biotransformation products of liberated parent amine in media (MCF-7 cells) | Stability in human plasma [8] | Hydrolysis of prodrug to parent amine (T47D breast cells; 10 μM, sensitive ER+ T47D breast cells, 37°C) | Hydrolysis of prodrug to parent amine (A498 renal cells; 10 μM, insensitive A498 renal cells, 37°C)
1 | Cc1cc(-c2nc3ccccc3s2)ccc1N [Compound 1, 2-(4-amino-3-methylphenyl)benzothiazole] | < 0.1 | < 0.1 | 17.58 nM resorufin mg^-1 protein | 22.6 | induced | not induced | 3 | 3 | negligible net removal | irreversibly inhibited | – | – | – | –
2 | Cc1cc(-c2nc3cc(F)ccc3s2)ccc1NC(=O)[C@H](C)N [Compound 2a] | 5.8 | 37.7 | 28.37 nM resorufin mg^-1 protein | 40.6 | induced | – | – | – | – | – | – | – | – | –
3 | Cc1cc(-c2nc3cc(F)c(F)cc3s2)ccc1NC(=O)[C@H](C)N [Compound 4a] | 33 | 220 | 17.09 nM resorufin mg^-1 protein | 41.9 | induced | – | – | – | – | – | – | – | – | –
4 | Cc1cc(-c2nc3cc(F)c(F)cc3s2)ccc1NC(=O)[C@@H](N)CCCCN [Compound 4b] | 30.7 | 302 | 20.04 nM resorufin mg^-1 protein | 54.9 | induced | – | – | – | – | – | – | – | – | –
5 | Cc1cc(-c2nc3cc(F)c(F)cc3s2)ccc1N [Compound 4] | < 0.1 | 3.55 | 32.02 nM resorufin mg^-1 protein | 43.1 | induced | – | – | – | – | – | emergence of an oxidative metabolite | – | – | –
6 | Cc1cc(-c2nc3ccccc3s2)ccc1NC(=O)[C@@H](N)CCCCN [Compound 1b] | 41.6 | 67.1 | – | – | – | – | – | – | – | – | – | stable | – | –
7 | Cc1cc(-c2nc3ccc(F)cc3s2)ccc1NC(=O)[C@H](C)N [Compound 3a] | 43.5 | 297 | 20.40 nM resorufin mg^-1 protein | 28.9 | induced | – | – | – | – | – | – | – | – | –
8 | Cc1cc(-c2nc3ccc(F)cc3s2)ccc1NC(=O)[C@@H](N)CCCCN [Compound 3b] | 147 | 328 | 19.88 nM resorufin mg^-1 protein | 47 | induced | – | – | – | – | – | – | – | – | –
9 | Cc1cc(-c2nc3ccc(F)cc3s2)ccc1N [Compound 3] | 0.65 | 0.73 | 32.60 nM resorufin mg^-1 protein | 36.4 | induced | not induced | – | – | – | – | emergence of an oxidative metabolite | – | – | –
10 | Cc1cc(-c2nc3ccccc3s2)ccc1NC(=O)[C@H](C)N [Compound 1a] | 0.32 | 39.9 | – | – | – | – | – | – | – | – | – | stable | rapidly and efficiently hydrolysed | rapidly and efficiently hydrolysed

Reference: article PMC2375326, “In vitro evaluation of amino acid prodrugs of novel antitumour 2-(4-amino-3-methylphenyl)benzothiazoles” (British Journal of Cancer, 2002)
